The source of these data is paper PMC6114901, “An automated screening method for detecting compounds with goitrogenic activity using transgenic zebrafish embryos” (PLoS ONE, 2018).

Structures are written as SMILES. Read-outs that look alike come from different tables or passages of the source.

The subject of data set [1] is thyroglobulin (tg:mCherry reporter gene). Kind of data set: animal or person. Conditions: for EC50: read-out: EC50 (tg:mCherry induction). How it is done:
In order to avoid interference of test chemicals with early thyroid gland development, zebrafish embryos were cultured in exposure medium until 48 hours post fertilization (hpf). Subsequently, they were exposed to seven known thyroid endocrine disrupters for 3 days (48 to 120 hpf). The non-goitrogenic compound 3,4-dichloroaniline, that is used as reference compound in the zebrafish acute embryo toxicity test was used as negative control. […] No solvents were used. […] Five concentrations and one control were tested per compound and replicate. In the second replicate the range of concentration was adjusted to improve fitting of concentration-response curves. […] Given the lack of appropriate spectral properties stability of exposure concentrations was not analysed for potassium perchlorate. Embryos were kept in the incubator at 26°C and a 14:10 hours light:dark cycle. The exposure was conducted in crystallisation dishes covered with watchmaker glasses with 30 embryos in 30 ml exposure medium (for exposure medium refer to [26]).
Embryos were positioned ventrally toward the microscope objective. Per embryo a bright field image, an autofocus fluorescence image and a Z-stack of 9 images were obtained. The Z-stack was required in case of autofocus failure and manual selection of the focal plane. Fluorescence images were obtained with 400 ms of fluorescent light exposure at maximal light intensity and a gain of 1. […] However, care was taken, that at least 10 images per concentration and replicates were assessed. To avoid a time bias during the analysis the sequence of wells for analysis was arranged in order to obtain a uniform distribution over the entire period of analysis.
The images were analysed using a KNIME workflow (Version 3.3.3., [29]) with the extension “KNIME image processing”. In brief, images were loaded into the workflow and the background was removed automatically using the “rolling ball” procedure of the image J plugin (rolling ball size set to 50 pixels). Subsequently the area containing the thyroid gland was manually selected by drawing a rectangle around the appropriate region using the interactive annotation node. […] If possible the autofocus images were used. In case that the thyroid gland was out of focus due to the presence of autofluorescing pigment cells, an appropriate image from the Z-stack was selected. All subsequent steps were conducted without any user interaction. […] Finally the sum of pixel (reflecting area of the thyroid gland and intensity of fluorescence) was calculated for the labeled area and used as a proxy of fluorescence intensity (see Fig 1 for an overview of the workflow). For each replicate the sum was of pixels was normalized by setting controls to the value of one. For data of individual embryos see S4 Table. The KNIME workflow used for image analysis is provided as supplement file (S1 Workflow).
To characterize the potency of the investigated goitrogenic compounds, we calculated EC50 values of tg:mcherry fluorescence using the pixel sum obtained from image analysis. For each replicate the fluorescence intensity was normalized by dividing the mean fluorescence intensity of each concentration with the mean control fluorescence intensity. Concentration-response curves of tgmcherry fluorescence were fitted to the data using the Hill-slope equation (Eq 1) and used to estimate EC50 values.
The parameter Min was set to 1 and the slope (p) and the maximum fluorescence (Max) were estimated.

For data set [2] the following is noted: ref chemspider (http://www.chemspider.com); cited from earlier work.
Data set [3] concerns thyroid hormone levels (T4). To be noted: cited from earlier work; for EC50: read-out: EC50 T4 reduction.
For the next data set, the system named is zebrafish embryos. Kind of data set: in vivo. To be noted: for Slope: mortality concentration-response curve. On the procedure:
Fish embryo acute toxicity tests were performed similar as described previously, using 10 or 25 embryos per concentration and replicate exposed in crystallization dishes from 48 to 120 hpf. No exchange of exposure media was performed. Lethality was identified by coagulation, missing heartbeat, a non–detached tail and/or missing of somites. Raw data for mortality and phenotypic assessment are provided as S1 Table. Concentration-response curves for mortality are shown in S2 Fig.

Where [4] appears, read: reduction of thyroid hormone levels (immunostaining), ref Thienpont et al. [13].
Setting [5] is: 72 hpf, 17777.78 µmol/L, replicate 2, 10 embryos.
The mark [6] stands for this setting: 72 hpf, 26666.67 µmol/L, replicate 2, 10 embryos.
Where [7] appears, read: 72 hpf, 40000.00 µmol/L, replicate 2, 10 embryos.
Setting [8] is: 72 hpf, 60000.00 µmol/L, replicate 2, 10 embryos.
[9] abbreviates: 72 hpf, 90000.00 µmol/L, replicate 2, 10 embryos.
Where [10] appears, read: 96 hpf, 17777.78 µmol/L, replicate 2, 10 embryos.
Setting [11] is: 96 hpf, 26666.67 µmol/L, replicate 2, 10 embryos.
Where [12] appears, read: 96 hpf, 40000.00 µmol/L, replicate 2, 10 embryos.
Setting [13] is: 96 hpf, 60000.00 µmol/L, replicate 2, 10 embryos.
[14] abbreviates: 96 hpf, 90000.00 µmol/L, replicate 2, 10 embryos.
Where [15] appears, read: 120 hpf, 5625.00 µmol/L, replicate 1, 25 embryos.
Setting [16] is: 120 hpf, 11250.00 µmol/L, replicate 1, 25 embryos.
[17] abbreviates: 120 hpf, 17777.78 µmol/L, replicate 2, 10 embryos.
Setting [18] is: 120 hpf, 22500.00 µmol/L, replicate 1, 25 embryos.
[19] abbreviates: 120 hpf, 26666.67 µmol/L, replicate 2, 10 embryos.
[20] abbreviates: 120 hpf, 40000.00 µmol/L, replicate 2, 10 embryos.
Where [21] appears, read: 120 hpf, 45000.00 µmol/L, replicate 1, 25 embryos.
Where [22] appears, read: 120 hpf, 60000.00 µmol/L, replicate 2, 10 embryos.
[23] abbreviates: 120 hpf, 90000.00 µmol/L, replicate 1, 25 embryos.
[24] abbreviates: 120 hpf, 90000.00 µmol/L, replicate 2, 10 embryos.

For the compound `S=C1NCCN1` [Ethylenethiourea, N, N’-ethylenethiourea], the EC50 (commonly the concentration needed to bring the measured effect to its halfway point) in data set [1] (Danio rerio) was found to be 366 µM. In data set [1] (zebrafish, in vivo), the “BMD 20” value was 246 µM and the Slope was determined as 3.8. The “Log D (pH 7.4)” value in data set [2] was -0.52. For the same compound, the EC50 in data set [3] (setting [4]) was 135 µM.
Regarding `Oc1cc(O)cc(O)c1` [Phloroglucinol, phloroglucinol], the results for the EC50 in data set [1] (Danio rerio) and in data set [3] (setting [4]) were 1100 µM and 2700 µM, respectively. The “BMD 20” value in data set [1] (zebrafish, in vivo) was found to be 252 µM. In data set [1] (zebrafish, in vivo), this compound yielded a Slope of 0.89. Also, the “Log D (pH 7.4)” value in data set [2] is recorded as 0.24. In data set [3] (thyroid disruption index based on T4 reduction, ref Thienpont et al. [13]), the “TDI (T4)” value is 32.
With `CCCc1cc(=O)[nH]c(=S)[nH]1` [Propylthiouracil, 6-propyl-2-thiouracil], the EC50 in data set [1] (Danio rerio) came out at 334 µM. In addition, in data set [1] (zebrafish, in vivo), the “BMD 20” value stood at 163 µM and the Slope was found to be 1.7. Also, in data set [3] (zebrafish, in vivo), the EC50 was 137 µM and the “TDI (T4)” value was 20.
For the compound `c1cn[nH]c1` [Pyrazole, pyrazole], the EC50 in data set [1] (zebrafish, in vivo) stood at 637 µM. The “BMD 20” value in data set [1] (zebrafish, in vivo) stood at 399 µM. Moreover, the Slope in data set [1] (zebrafish, in vivo) amounted to 5.7; with zebrafish embryos (24 h of exposure), 56.2; with zebrafish embryos (48 h of exposure) it was 56.2; in the data set on zebrafish embryos (72 h of exposure), 132. The compound also showed a TDI in data set [1] (zebrafish, in vivo) of 67. The “No Surviving” value was 10 in the data set with zebrafish embryos (setting [5]); 10 with zebrafish embryos (setting [6]); 10 with zebrafish embryos (setting [7]); 0 in the data set with zebrafish embryos (setting [8]); 0 in the data set on zebrafish embryos (setting [9]); 10 in the data set with zebrafish embryos (setting [10]). Moreover, the “No Surviving” value turned out to be 10 in the data set with zebrafish embryos (setting [11]); 10 in the data set on zebrafish embryos (setting [12]); 0 in the data set on zebrafish embryos (setting [13]); 0 in the data set with zebrafish embryos (setting [14]); 25 in the data set on zebrafish embryos (setting [15]); 25 in the data set on zebrafish embryos (setting [16]). The “No Surviving” value in the data set on zebrafish embryos (setting [17]) amounted to 10; in the data set with zebrafish embryos (setting [18]), 23; in the data set on zebrafish embryos (setting [19]), 10; with zebrafish embryos (setting [20]) it was 10; with zebrafish embryos (setting [21]), 0; in the data set on zebrafish embryos (setting [22]) it was 0. Moreover, the “No Surviving” value in the data set with zebrafish embryos (setting [23]) and in the data set with zebrafish embryos (setting [24]) was 0 throughout. In addition, the No hatched is reported as 0 with zebrafish embryos (setting [5]); 0 in the data set with zebrafish embryos (setting [6]); 0 in the data set on zebrafish embryos (setting [7]); 0 in the data set on zebrafish embryos (setting [8]); 0 with zebrafish embryos (setting [9]); 10 with zebrafish embryos (setting [10]). Also, the No hatched with zebrafish embryos (setting [11]) worked out at 8; with zebrafish embryos (setting [12]) it was 9; in the data set with zebrafish embryos (setting [13]), 0; with zebrafish embryos (setting [14]), 0; with zebrafish embryos (setting [17]), 10; in the data set with zebrafish embryos (setting [19]), 9. Further, the No hatched in the data set on zebrafish embryos (setting [20]) is listed as 9; in the data set with zebrafish embryos (setting [22]), 0; in the data set with zebrafish embryos (setting [24]), 0. The “Total Sublethal” value with zebrafish embryos (setting [7]) was found to be 3; with zebrafish embryos (setting [12]) it was 10. The “nobc (no blood circulation)” value with zebrafish embryos (setting [7]) stood at 3. Moreover, the “nohb (no heartbeat)” value turned out to be 10 with zebrafish embryos (setting [8]), 10 in the data set on zebrafish embryos (setting [9]) and 5 in the data set on zebrafish embryos (setting [13]). Also, the “nomov (no spontaneous movement)” value with zebrafish embryos (setting [12]) came to 10. The entries for the “k/f (coagulated)” value with zebrafish embryos (setting [13]) and in the data set on zebrafish embryos (setting [14]) were 5 and 10, respectively. The “Sublethal effects Total Sublethal” value in the data set on zebrafish embryos (setting [15]) turned out to be 1; with zebrafish embryos (setting [16]), 1; with zebrafish embryos (setting [18]), 12; in the data set on zebrafish embryos (setting [19]), 4; in the data set on zebrafish embryos (setting [20]) it was 10. Besides, the Lethal effects k/f in the data set on zebrafish embryos (setting [18]) is reported as 2; in the data set on zebrafish embryos (setting [21]), 25; with zebrafish embryos (setting [22]), 10; with zebrafish embryos (setting [23]), 25; in the data set with zebrafish embryos (setting [24]), 10. For the same compound, the Sublethal effects mch with zebrafish embryos (setting [19]) is given as 1. Moreover, the Sublethal effects nomov in the data set with zebrafish embryos (setting [19]) is 4; with zebrafish embryos (setting [20]), 8. Besides, the “Sublethal effects EdY / EdP” value in the data set on zebrafish embryos (setting [20]) worked out at 9. This compound showed a Sublethal effects nobc in the data set on zebrafish embryos (setting [20]) of 4. The LC50 (commonly the concentration that kills 50% of the test population) in the data set on zebrafish embryos (mortality after 24 h of exposure, S2 Fig, unit inferred) turned out to be 48.9 mM; in the data set on zebrafish embryos (mortality after 48 h of exposure, S2 Fig, unit inferred), 48.9 mM; in the data set on zebrafish embryos (read-out: LC50 (48–120 hpf), mortality, embryos exposed 48–120 hpf), 42.4 mM. Also, the “Log D (pH 7.4)” value in data set [2] is on record as 0.43.
